Test results reported in US20190151283A1, “NON-STEROIDAL SELECTIVE GLUCOCORTICOID RECEPTOR AGONISTIC MODULATORS (SEGRAMs) AND USES THEREOF” (ASSOCIATION POUR LA RECHERCHE À L'IGBMC (ARI), priority 2017, published 2019).

How the values were obtained:
Assay type in all cases: in vivo, mouse
mice = assay: House dust mite (HDM)-induced asthma-like allergic lung inflammation; conditions: for total number of BAL cells, eosinophils and lymphocytes: 0.5 mg/kg on D29-D31, BAL on D32, vs control group; for peribronchiolar and perivascular inflammatory cell infiltration: histology of lung paraffin sections; for expressions of IL-1β, IL-6, IL-4, IL-5, IL-13, Eotaxin and CCL4 (pro-inflammatory genes) in lung samples / HDM-induced airway hyperresponsiveness (AHR), airway resistance and elastance: D32; for HDM-induced airway hyperresponsiveness (AHR), airway resistance and elastance: response to methacholine 50 mg/mL
Protocol: Glucocorticoids have been (Pearlman et al., 1997. Ann Allergy Asthma Immunol. 78(4):356-62), and are still, widely used in asthma therapy. In order to investigate the possible CpdX anti-inflammatory activity in vivo, mice were sensitized and challenged with either ovalbumin (OVA) or house dust mite (HDM) to induce an asthma-like allergic lung inflammation.
Mice were intranasally sensitized with 1 μg HDM from DO to D4, and further intranasally sensitized with 10 μg HDM on D14 and D21. Mice were then subdivided into eight groups, and on D29, D30 and D31, each mouse was again intranasally challenged with 1 μg HDM. The first seven groups received respectively 0.5 mg/kg of body weight of Dex, CpdX, CpdX(eA), CpdX(eB), CpdX-D3, CpdX-D3(eA) or CpdX-D3(eB), while the eighth group served as a control.
On D32, the airway responsiveness was invasively determined using a computer-controlled small animal ventilator (FlexVent® system, SCIREQ Technologies). Mice were anesthetized with xylazine (15 mg/kg, i.p.), followed 15 minutes later by an i.p. injection of pentobarbital sodium (54 mg/kg). An 18-gauge metal needle was then inserted into the trachea, each mouse was connected to the FlexVent® ventilator and quasi-sinusoidally ventilated with a tidal volume of 10 mL/kg at a frequency of 150 breaths/minute and a positive end-expiratory pressure of 2 cm H2O, in order to achieve a mean lung volume close to spontaneous breathing. After baseline measurement, mice were challenged for 10 seconds with a saline aerosol and, at 4.5-minute intervals, with 50 mg/mL methacholine. Airway resistance and elastance were expressed as cmH20·s/mL and cmH2O/mL respectively.
The lung allergic inflammation was assessed by examination of the bronchoalveolar lavage (BAL) fluid from each of these HDM-challenged mice. The total BAL cells, eosinophils, neutrophils, macrophages and lymphocytes were counted. RNA transcripts were extracted from lung samples. RNA transcripts of IL-1β, IL-6, IL-4, IL-5, IL-13, Eotaxin, CCL4, IL-10 and TNFα were analyzed by q-RT-PCR. Lung tissues were harvested and histological (with H&E staining) and immunohistochemical analyses were also carried out (with eosinophil-specific and neutrophil-specific antibodies).

Balb/C mice = assay: Skin atrophy after 8-day topical treatment of dorsal skin; conditions: for epidermal thickness: morphometric analysis; for transcription of the REDD1 gene in dorsal skin: topical 8 days, 1 nmole/cm^2, 'but not' = not increased
Excerpt: To investigate whether, similarly to Dex, a topical administration of CpdX could result in a skin atrophy, Balb/C mice were shaved on the dorsal skin. Ethanol (vehicle), Dex, CpdX or either one of its two enantiomers CpdX(eA) or CpdX(eB), as well as the deuterated form CpdX-D3 or either one of its two enantiomers CpdX-D3(eA) or CpdX-D3(eB), were topically applied onto the dorsal skin for 8 days.
Upon completion of the treatments, RNA transcripts were extracted from dorsal skin samples and the transcripts of Kindlin-1 and REDD1 genes were analyzed by q-RT-PCR. Histological and morphometric analyses of the dorsal skin were also performed.

B6 male mice [1] = assay: Bone formation after three-month treatment (micro-CT, WNT16 transcripts); conditions: s.c. 1 mg/kg daily, three months
Protocol: B6 male mice (8-week-old) were daily subjected for three months to either a subcutaneous injection of vehicle (NaCl 0.9%), Dex, CpdX, CpdX(eA), CpdX(eB), CpdX-D3, CpdX-D3(eA) or CpdX-D3(eB) (1 mg/kg body weight, diluted in NaCl 0.9%).
From each animal included in the experiments, one femur and the ipsilateral tibia were dissected and preserved in 70% ethanol for further bone microstructure analysis by micro-CT. The FX Quantum micro-CT scanner (Perkin Elmer) was used to perform measurements at the distal femur and midshaft tibia. All scans were performed with an isotropic voxel size of 10 μm, 160 μA tube current and 90 kV tube voltage.
Morphological 3D measurements were performed using the CTAn software (Bruker). Cortical bone parameters, which were measured in the tibia midshaft, included measures of the bone volume fraction as compared to the total volume, cortical thickness, total area, bone area and marrow area. The region of interest was selected from below the distal tibial crest and continued for 20 slices toward the proximal end of the tibia. Trabecular bone parameters were measured in the distal metaphysis of the femurs and included bone volume fraction, trabecular thickness, trabecular number and trabecular spacing. The region of interest was selected from below the distal growth plate where the epiphyseal cap structure completely disappeared and continued for 100 slices toward the proximal end of the femur.
The statistical significance as compared to vehicle treatment was calculated through one-way ANOVA test followed by Dunn's multiple comparison test, *p<0.05; **p<0.01; ***p<0.001; ****p<0.0001.

B6 male mice [2] = assay: Blood glucose and intraperitoneal glucose tolerance test after three-month treatment; conditions: for control of the blood glucose level: three months, conclusion; for blood glucose level in intraperitoneal glucose tolerance test (IPGTT): two-hour period after glucose i.p. injection (2 mg/kg body weight)
Protocol: B6 male mice (8-week-old) were daily subjected for three months to a subcutaneous injection of either vehicle (NaCl 0.9%), Dex, CpdX, CpdX(eA), CpdX(eB), CpdX-D3, CpdX-D3(eA) or CpdX-D3(eB) (1 mg/kg body weight, diluted in vehicle). Mice were over-night-fasted. Mouse blood glucose concentration was measured before (T0) and during two hours (T120) after glucose i.p. injection ([…] body weight).

B6 male mice [3] = assay: Fatty liver after three-month treatment; conditions: three months; for transcripts of fatty acid synthase (FASN) and Stearoyl-CoA desaturase 1 (SCD1) in liver: q-RT-PCR, 'but not' = no increase; for blood cholesterol and bile acids' levels: 'but not' = no clear increase
Protocol: B6 male mice (8-week-old) were daily subjected for three months to a subcutaneous injection of either vehicle (NaCl 0.9%), Dex, CpdX, CpdX(eA), CpdX(eB), CpdX-D3, CpdX-D3(eA) or CpdX-D3(eB) (1 mg/kg body weight, diluted in vehicle). Following this treatment, blood was collected at 10 a.m. by retro-orbital puncture in lithium-heparin coated vials. The plasmatic levels of total cholesterol and bile acids were determined.
Liver samples were harvested. […] RNA transcripts were extracted from liver samples and the transcripts of fatty acid synthase (FASN) and Stearoyl-CoA desaturase 1 (SCD1) genes were analyzed by q-RT-PCR.

Row | SMILES | number of neutrophils and macrophages in BAL (mice; 0.5 mg/kg on D29-D31, BAL on D32) | total number of BAL cells, eosinophils and lymphocytes (mice) | eosinophils in lung, immunohistochemistry (mice; eosinophil-specific antibodies, data not shown) | peribronchiolar and perivascular inflammatory cell infiltration (mice) | neutrophils in lung, immunohistochemistry (mice; neutrophil-specific antibody, data not shown) | expressions of IL-1β, IL-6, IL-4, IL-5, IL-13, Eotaxin and CCL4 (pro-inflammatory genes) in lung samples (mice; q-RT-PCR) | expressions of IL-10 and TNFα in lung samples (mice; q-RT-PCR, data not shown) | HDM-induced airway hyperresponsiveness (AHR), airway resistance and elastance (mice) | epidermal thickness (Balb/C mice; eight-day topical treatment) | skin atrophy, histological analysis (Balb/C mice; eight-day topical treatment, 'in marked contrast' = no severe atrophy as with Dex) | transcription of the REDD1 gene in dorsal skin (Balb/C mice) | bone formation in cortical and trabecular bones (B6 male mice [1]) | control of the blood glucose level (B6 male mice [2]) | blood glucose level in intraperitoneal glucose tolerance test (IPGTT) (B6 male mice [2]) | lipid deposition in the liver (B6 male mice [3]; 5% Red oil staining of frozen sections) | transcripts of fatty acid synthase (FASN) and Stearoyl-CoA desaturase 1 (SCD1) in liver (B6 male mice [3]) | blood cholesterol and bile acids' levels (B6 male mice [3])
1 | [2H]C([2H])([2H])Oc1ccc(F)cc1C(C)(C)CC(O)(CNc1ccc2c(c1)COC2=O)C(F)(F)F (racemic) [CpdX-D3, 5-{4-[2-(methoxy-D3)-5-fluorophenyl]-2-hydroxy-4-methyl-2-(trifluoro-methyl)pentylamino}isobenzofuran-1(3H)-one] | No significant change | significantly decreased | decreased | strongly decreased | no significant change | significantly and similarly decreased | not affected | similarly reduced | not significantly decreased | in marked contrast | but not | did not affect | does not significantly affect | no significant difference | not observed | but not | but not
2 | COc1ccc(F)cc1C(C)(C)CC(O)(CNc1ccc2c(c1)COC2=O)C(F)(F)F (single isomer, unassigned) [CpdX(eB), 5-[4-(5-fluoro-2-methoxyphenyl)-2-hydroxy-4-methyl-2-(trifluoromethyl)pentylamino]-isobenzofuran-1(3H)-one] |  |  |  |  |  |  |  |  | not significantly decreased |  | but not | did not affect | does not significantly affect | no significant difference |  | but not | but not
3 | [2H]C([2H])([2H])Oc1ccc(F)cc1C(C)(C)CC(O)(CNc1ccc2c(c1)COC2=O)C(F)(F)F (stereo not shown) [CpdX-D3(eA), 5-{4-[2-(methoxy-D3)-5-fluorophenyl]-2-hydroxy-4-methyl-2-(trifluoromethyl)pentylamino}isobenzofuran-1(3H)-one] |  | efficiently decreased |  | decreased |  | efficiently decreased |  |  | not significantly decreased |  | but not | did not affect | does not significantly affect | no significant difference |  | but not | but not
4 | COc1ccc(F)cc1C(C)(C)CC(O)(CNc1ccc2c(c1)COC2=O)C(F)(F)F (single isomer, unassigned) [CpdX(eA), 5-[4-(5-fluoro-2-methoxyphenyl)-2-hydroxy-4-methyl-2-(trifluoromethyl)pentylamino]-isobenzofuran-1(3H)-one] |  | efficiently decreased |  | decreased |  | efficiently decreased |  | reduced | not significantly decreased |  | but not | did not affect | does not significantly affect | no significant difference |  | but not | but not
5 | [2H]C([2H])([2H])Oc1ccc(F)cc1C(C)(C)CC(O)(CNc1ccc2c(c1)COC2=O)C(F)(F)F (stereo not shown) [CpdX-D3(eB), 5-{4-[2-(methoxy-D3)-5-fluorophenyl]-2-hydroxy-4-methyl-2-(trifluoromethyl)pentylamino}isobenzofuran-1(3H)-one] |  |  |  |  |  |  |  |  | not significantly decreased |  | but not | did not affect | does not significantly affect | no significant difference |  | but not | but not
